From patent US11485728B2, “Small molecules for the treatment of autoimmune diseases and cancer” (Athos Therapeutics, Inc., priority 2020, dated 2022) come the findings set out here.

A value given as a limit tells only on which side of the number the result lay.

The nature of this data set: In-vitro half-life in rat liver microsomes. The class given is in vitro ADME. The following applies: Rat liver microsomes 0.5 mg/mL; 1 μg/mL drug; NRS; read-out: Metabolic Half-life. The procedure:
In each of the species (human, rat, mouse) of liver matrix to be tested, a working concentration of 2 μg/mL was prepared of each test article from the 0.5 mg/mL DMSO stock solution by adding 3 μL of 0.5 mg/mL test article stock solution to 747 μL of the 1 mg/mL liver matrix. Incubation was performed at 37±2° C. with gentle, continuous mixing in shaking water bath in 2.0 mL-well capacity 96-Deepwell plates (96-DWP). Samples were retrieved in duplicate at the following time points: 0, 5, 10, 15, 30 and 60 minutes. The final mixture contained 1 μg/mL of drug and 0.5 mg/mL of liver matrix. First, 50 μL of test articles in liver matrix was added to the 96-DWP and pre-warmed the mixture in the 96-DWP for 2 minutes in the 37° C. water bath. The enzymatic reaction was started by the addition of 50 μL of the corresponding 2× NADPH regenerating system (NRS) cofactor solution to all sample wells and stopped by the addition of 300 μL of stop solution (acetonitrile containing 10 ng/mL Tolbutamide as an internal standard (I.Std.). The samples were agitated for 10 minutes and then centrifuged for 20 minutes at 4500 rpm. 25 μL of supernatant was diluted with 475 μL acetonitrile containing I. Std. into a new 96-DWPs for LC-MS/MS analysis.
Half-life calculations were generated and calculated by Graphpad Prism® software. The half-life of test compound was calculated based on the first-order reaction kinetics. The data was transformed to linear regression (y=log(y) where “y” axis represents the % compound remaining at any given time with respect to time 0 minutes; “x” axis represents time in minutes) in order to calculate the half-life.
A comparison of metabolic stability in time-course incubation experiments in varying species of liver can provide information of pharmacokinetic properties of drugs attributable to species-related differences in hepatic metabolism. The results of these experiments often assist in further applications such as assessing in vitro metabolite profiling and choosing relevant species for toxicology studies based on similarities relative to the metabolic stability to the human profile. For these experiments, the test compound was tested in parallel with a positive control, Dasatinab, in an enzymatic reaction solution of each species (human and rat) of liver microsomes containing a NADPH regenerating system (NRS). The final mixture contained 1 μg/mL of drug and 0.5 mg/mL of liver matrix. Incubations were performed at 37±2° C. with gentle, continuous mixing in shaking water bath in 96-Deep well plates. The stability of the test compound is monitored using fast, specific and sensitive LC/MS/MS analysis.
On the technique in general: Liver microsomes are a subcellular fraction often used to study metabolism.
With `COCCNc1nc(N2CCC(F)(F)CC2)nc2cc(OCCCN3CCCC3)c(OC)cc12` [Compound 4, 2-(4,4-difluoropiperidin-1-yl)-6-methoxy-N-(2-methoxyethyl)-7-(3-(pyrrolidin-1-yl)propoxy)quinazolin-4-amine], the half-life at 1 μg/mL was above 60 min.

With `COc1cc2c(NC3CCOCC3)nc(N3CCC(F)(F)CC3)nc2cc1OCCCN1CCCC1` [Compound 2, 2-(4,4-difluoropiperidin-1-yl)-6-methoxy-7-(3-(pyrrolidin-1-yl)propoxy)-N-(tetrahydro-2H-pyran-4-yl)quinazolin-4-amine], the half-life at 1 μg/mL turned out to be 49.7 min.

As for `COc1cc2c(NC3CCOCC3)nc(N3CCN(C)CC3)nc2cc1OCCCN1CCCC1` [Compound 236, 6-methoxy-2-(4-methylpiperazin-1-yl)-7-(3-(pyrrolidin-1-yl)propoxy)-N-(tetrahydro-2H-pyran-4-yl)quinazolin-4-amine], the half-life at 1 μg/mL is above 60 min.

A word on the half-life: it is how long it takes for the measured level to halve.
